The molecules below were run on Aβ42 production (assay: Quantification of Aβ peptide in culture of neurons from rat fetus brain (Aβ ELISA)). Conditions: Neuron, 72 h; rat primary neuronal culture (cerebral cortex, embryonic day 18 Wistar rats); medium collected three days after addition of the compound; Aβx-42 ELISA; read-out: Aβ42 production reducing effect IC50.
Type: cell-based
Procedure: Quantification of Aβ Peptide in Culture of Neurons from Rat Fetus Brain
(1) Rat Primary Neuronal Culture
Primary neuronal cultures were prepared from the cerebral cortex of embryonic day 18 Wistar rats (Charles River Japan, Yokohama, Japan). Specifically, the embryos were aseptically removed from pregnant rats under ether anesthesia. The brain was isolated from the embryo and immersed in an ice-cold L-15 medium (such as Invitrogen Corp. Cat #11415-064, Carlsbad, Calif., USA, or SIGMA L1518). The cerebral cortex was collected from the isolated brain under a stereoscopic microscope. The cerebral cortex fragments collected were enzymatically treated in an enzyme solution containing 0.25% trypsin (Invitrogen Corp. Cat #15050-065, Carlsbad, Calif., USA) and 0.01% DNase (Sigma D5025, St. Louis, Mo., USA) at 37° C. for 30 minutes to disperse the cells. Here, the enzymatic reaction was stopped by adding inactivated horse serum to the solution. The enzymatically treated solution was centrifuged at 1,500 rpm for five minutes to remove the supernatant. 5 to 10 mL of a medium was added to the resulting cell mass. Neurobasal medium (Invitrogen Corp. Cat #21103-049, Carlsbad, Calif., USA) supplemented with 2% B27 supplement (Invitrogen Corp. Cat #17504-044, Carlsbad, Calif., USA), 25 μM 2-mercaptoethanol (2-ME, WAKO Cat #139-06861, Osaka, Japan), 0.5 mM L-glutamine (Invitrogen Corp. Cat #25030-081, Carlsbad, Calif., USA), and Antibiotics-Antimycotics (Invitrogen Corp. Cat #15240-062, Carlsbad, Calif., USA) was used as the medium (Neurobasal/B27/2-ME). However, the above Neurobasal medium not supplemented with 2-ME (Neurobasal/B27) was used for the assay. The cells were redispersed by mild pipetting of the cell mass to which the medium was added. The cell dispersion was filtered through a 40-μm nylon mesh (Cell Strainer, Cat #35-2340, Becton Dickinson Labware, Franklin Lakes, N.J., USA) to remove the remaining cell mass, and thus a neuronal cell suspension was obtained. The neuronal cell suspension was diluted with the medium and then plated in a volume of 100 μL/well at an initial cell density of 5×10^5 cells/cm^2 in a 96-well polystyrene culture plate pre-coated with poly-L or D-lysine (Falcon Cat #35-3075, Becton Dickinson Labware, Franklin Lakes, N.J., USA coated with poly-L-lysine using the method shown below, or BIOCOAT™ cell environments Poly-D-lysine cell ware 96-well plate, Cat #35-6461, Becton Dickinson Labware, Franklin Lakes, N.J., USA). Poly-L-lysine coating was carried out as follows. 100 μg/mL of a poly-L-lysine (SIGMA P2636, St. Louis, Mo., USA) solution was aseptically prepared with a 0.15 M borate buffer (pH 8.5). […] of the solution was added to the 96-well polystyrene culture plate and incubated at room temperature for one or more hours or at 4° C. overnight or longer. Thereafter, the coated 96-well polystyrene culture plate was washed with sterile water four or more times, and then dried or rinsed with, for example, sterile PBS or medium, and used for cell plating. The plated cells were cultured in the culture plate at 37° C. in 5% CO2-95% air for one day. Then, the total amount of the medium was replaced with a fresh Neurobasal™/B27/2-ME medium, and then the cells were cultured for further three days.
The drug was added to the culture plate on Day 4 of culture as follows. The total amount of the medium was removed from the wells, and 180 μL/well of Neurobasal medium not containing 2-ME and containing 2% B-27 (Neurobasal/B27) was added thereto. A solution of the test compound in dimethyl sulfoxide (hereinafter abbreviated as DMSO) was diluted with Neurobasal/B27 to a concentration 10-fold higher than the final concentration. 20 μL/well of the dilution was added to and sufficiently mixed with the medium. The final DMSO concentration was 1% or less. Only DMSO was added to the control group.
The cells were cultured for three days after addition of the compound, and the total amount of the medium was collected. […]
NC1=N[C@@]2(c3cc(NC(=O)c4ncccc4C(F)(F)F)ccc3F)CCC[C@H]2CS1 (single isomer, unassigned) [Example 170, N-[3-((4aR*,7aS*)-2-amino-4a,5,6,7-tetrahydro-4H-cyclopenta[d][1,3]thiazin-7a-yl)-4-fluorophenyl]-3-trifluoromethylpyridine 2-carboxamide] was tested, and the IC50 was 210 nM.
NC1=N[C@@]2(c3cc(NC(=O)c4ncccc4Br)ccc3F)CCCC[C@H]2CS1 [Example 260] showed an IC50 of 170 nM.
Work on NC1=N[C@@]2(c3cccc(-c4cccnc4F)c3)CN(C(=O)c3ccccc3)C[C@H]2CS1 [Example 82] yielded an IC50 of 425 nM.
With CO[C@@H]1C[C@H]2CSC(N)=N[C@@]2(c2cc(NC(=O)c3cnc(C(F)F)cn3)ccc2F)C1 (relative stereo) [Example 93, (+)-N-[3-((4aR*,6R*,7aS*)-2-amino-6-methoxy-4a,5,6,7-tetrahydro-4H-cyclopenta[d][1,3]thiazin-7a-yl)-4-fluorophenyl]-5-difluoromethylpyrazine-2-carboxamide] the IC50 was 3 nM.
NC1=N[C@@]2(c3cc(NC(=O)c4cnc5ccccc5n4)ccc3F)CCC[C@H]2CS1 [Example 140] showed an IC50 of 67 nM.
Molecule NC1=N[C@@]2(c3cc(NC(=O)c4ccc(Cl)cn4)ccc3F)COC[C@H]2CS1 (relative stereo) [Example 26, N-[3-((4aS*,7aS*)-2-amino-4a,5-dihydro-4H-furo[3,4-d][1,3]thiazin-7a-yl)-4-fluorophenyl]-5-chloropyridine-2-carboxamide] has an IC50 of 6.9 nM.
C[C@H]1OC[C@]2(c3cc(NC(=O)c4ccc(Cl)cn4)ccc3F)N=C(N)SC[C@H]12 (relative stereo) [Example 56, N-[3-((4aS*,5R*,7aS*)-2-amino-5-meth 1-4a,5-dihydro-4H-furo[3,4-d][1,3]thiazin-7a-yl)-4-fluorophenyl]-5-chloropyridine-2-carboxamide] gave an IC50 of 3 nM.
For COC[C@H]1OC[C@]2(c3cc(NC(=O)c4cnc(C(F)F)cn4)ccc3F)N=C(N)SC[C@H]12 [Example 68, N-[3-((4aS,5S,7aS)-2-amino-5-methoxymethyl-4a,5-dihydro-4H-furo[3,4-d][1,3]thiazin-7a-yl)-4-fluorophenyl]-5-difluoromethylpyrazine-2-carboxamide], the IC50 was 6 nM.
With NC1=N[C@@]2(c3cc(NC(=O)c4nccs4)ccc3F)CCC[C@H]2CS1 (single isomer, unassigned) [Example 137, N-[3-((4aR*,7aS*)-2-amino-4a,5,6,7-tetrahydro-4H-cyclopenta[d][1,3]thiazin-7a-yl)-4-fluorophenyl]-thiazole-2-carboxamide] the IC50 was 47 nM.
For NC1=N[C@@]2(c3cc(NC(=O)c4cnc(OCC(F)(F)F)cn4)ccc3F)CCC[C@H]2CS1 (single isomer, unassigned) [Example 178, N-[3-((4aR*,7aS*)-2-amino-4a,5,6,7-tetrahydro-4H-cyclopenta[d][1,3]thiazin-7a-yl)-4-fluorophenyl]-5-(2,2,2-trifluoroethoxy)-pyrazine-2-carboxamide], the IC50 was 44 nM.
NC1=N[C@@]2(c3cc(NC(=O)c4cnc(C(F)F)cn4)ccc3F)C[C@H](CF)OC[C@H]2CS1 [Example 43, N-[3-((4aS,7R,8aS)-2-amino-7-fluoromethyl-4a,5,7,8-tetrahydro-4H-6-oxa-3-thia-1-azanaphthalen-8a-yl)-4-fluorophenyl]-5-difluoromethylpyrazine-2-carboxamide] was tested, and the IC50 was 19 nM.
NC1=N[C@@]2(c3cc(NC(=O)c4ccc5cnccc5n4)ccc3F)CCC[C@H]2CS1 [Example 138] was tested, and the IC50 was 63 nM.
NC1=N[C@@]2(c3cc(NC(=O)c4cnc(C(F)F)cn4)ccc3F)CCO[C@H](CF)[C@H]2CS1 (relative stereo) [Example 146, N-[3-((4aS*,5S*,8aS*)-2-amino-5-fluoromethyl-4a,5,7,8-tetrahydro-4H-6-oxa-3-thia-1-azanaphthalen-8a-yl)-4-fluorophenyl]-5-difluoromethylpyrazine-2-carboxamide] showed an IC50 of 32 nM.
For NC1=N[C@@]2(c3cc(NC(=O)c4ccc(Br)cn4)ccc3F)CCCCC[C@H]2CS1 (single isomer, unassigned) [Example 249, N-[3-((4aR*,9aS*)-2-amino-4a,5,6,7,8,9-hexahydro-4H-cyclohepta[d][1,3]thiazin-9a-yl)-4-fluroophenyl]-5-bromopyridine-2-carboxamide], the IC50 was 18 nM.
In the case of CO[C@H]1CC[C@]2(c3cc(NC(=O)c4cnc(OC(F)F)cn4)ccc3F)N=C(N)SC[C@H]12 (relative stereo) [Example 64, N-[3-((4aS*,5S*,7aS*)-2-amino-5-methoxy-4a,5,6,7-tetrahydro-4H-cyclopenta[d][1,3]thiazin-7a-yl)-4-fluorophenyl]-5-difluoromethoxypyrazine-2-carboxamide], the IC50 is reported as 8 nM.
In the case of NC1=N[C@@]2(c3cc(NC(=O)c4cnccn4)ccc3F)CCCC[C@H]2CS1 [Example 224], the IC50 is reported as 271 nM.
N#Cc1ccc(C(=O)Nc2ccc(F)c([C@]34C[C@H](CF)OC[C@H]3CSC(N)=N4)c2)nc1 [Example 42, N-[3-((4aS,7R,8aS)-2-amino-7-fluoromethyl-4a,5,7,8-tetrahydro-4H-6-oxa-3-thia-1-azanaphthalen-8a-yl)-4-fluorophenyl]-5-cyanopyridine-2-carboxamide] showed an IC50 of 4 nM.
Work on C[C@H]1OC[C@]2(c3cc(NC(=O)c4ccc(C#N)cn4)ccc3F)N=C(N)SC[C@H]12 (relative stereo) [Example 54, N-[3-((4aS*,5R*,7aS*)-2-amino-5-methyl-4,5-dihydro-4H-furo[3,4-d][1,3]thiazin-7a-yl-4-fluorophenyl]-5-cyanopyridine-2-carboxamide] yielded an IC50 of 1.7 nM.
Molecule CSc1cnc(C(=O)Nc2ccc(F)c([C@]34CCC[C@H]3CSC(N)=N4)c2)cn1 (single isomer, unassigned) [Example 135, N-[3-((4aR*,7aS*)-2-amino-4a,5,6,7-tetrahydro-4H-cyclopenta[d][1,3]thiazin-7a-yl)-4-fluorophenyl]-5-methylsulfanyl-pyrazine-2-carboxamide] has an IC50 of 15 nM.
Molecule NC1=N[C@@]2(c3cccc(-c4cccnc4F)c3)CN(c3ccc(F)cc3)C[C@H]2CS1 (racemic) [Example 226, (±)-(4aR*,7aS*)-6-(4-fluorophenyl)-7a-[3-(2-fluoropyridin-3-yl)phenyl]-4,4a,5,6,7,7a-hexahydropyrrolo[3,4-d][1,3]thiazin-2-ylamine] has an IC50 of 233 nM.
Molecule NC1=N[C@@]2(c3cc(NC(=O)c4ccc(OC(F)F)cn4)ccc3F)CCO[C@H](CF)[C@H]2CS1 (relative stereo) [Example 147, N-[3-((4aS*,5S*,8aS*)-2-amino-5-fluoromethyl-4a,5,7,8-tetrahydro-4H-6-oxa-3-thia-1-azanaphthalen-8a-yl)-4-fluorophenyl]-5-difluoromethoxypyridine-2-carboxamide] has an IC50 of 12 nM.
NC1=N[C@@]2(c3cc(NC(=O)c4ccc(OC(F)F)cn4)ccc3F)CCOC[C@H]2CS1 (relative stereo) [Example 81, N-[3-((4aS*,8aS*)-2-amino-4a,5,7,8-tetrahydro-4H-6-oxa-3-thia-1-azanaphthalen-8a-yl)-4-fluorophenyl]-5-difluoromethoxypyridine-2-carboxamide] gave an IC50 of 14 nM.

Source: patent publication US20100317850A1 (priority 2008, published 2010)
